{
  "source": "paper PMC5222924",
  "about": "“Synergistic interplay of Gβγ and phosphatidylinositol 4,5-bisphosphate dictates Kv7.4 channel activity” (Pflugers Archiv, 2016)",
  "key": {"Kv7.4 [1]": {"target": "T1, Kv7.4 (Homo sapiens, UniProt P56696)", "T1 construct": "gene KCNQ4; full-length channel, homomer, stably expressed in HEK293 cells (line a gift from the University of Copenhagen)", "T1 sequence (P56696 1-695)": "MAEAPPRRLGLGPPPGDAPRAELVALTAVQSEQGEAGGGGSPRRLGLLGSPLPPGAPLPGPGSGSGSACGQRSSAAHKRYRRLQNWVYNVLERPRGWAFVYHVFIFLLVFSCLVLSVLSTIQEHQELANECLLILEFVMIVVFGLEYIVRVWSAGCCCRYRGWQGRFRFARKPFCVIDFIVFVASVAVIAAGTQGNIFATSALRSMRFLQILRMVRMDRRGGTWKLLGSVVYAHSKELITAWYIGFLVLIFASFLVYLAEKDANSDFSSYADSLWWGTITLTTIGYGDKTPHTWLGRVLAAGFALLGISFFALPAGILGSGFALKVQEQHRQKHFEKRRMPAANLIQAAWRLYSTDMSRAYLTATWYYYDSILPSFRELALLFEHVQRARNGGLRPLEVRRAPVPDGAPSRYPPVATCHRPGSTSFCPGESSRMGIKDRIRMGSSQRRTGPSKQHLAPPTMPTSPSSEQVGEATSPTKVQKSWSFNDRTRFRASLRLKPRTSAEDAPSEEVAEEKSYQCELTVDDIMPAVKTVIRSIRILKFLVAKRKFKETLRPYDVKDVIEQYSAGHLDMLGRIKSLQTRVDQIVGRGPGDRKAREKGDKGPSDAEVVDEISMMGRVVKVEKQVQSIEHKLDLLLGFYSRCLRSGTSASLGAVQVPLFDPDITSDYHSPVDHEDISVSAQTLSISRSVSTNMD", "assay": "whole-cell patch clamp", "type": "cell-based", "settings": "room temperature; opener, concentration not given; common approximate value for three openers"}, "Kv7.4 channel": {"target": "Kv7.4 channel (UniProt P56696)"}, "Kv7.4 [2]": {"target": "T1, Kv7.4", "assay": "inside-out patch clamp, single-channel NPo", "type": "cell-based", "settings": "room temperature; activator applied to excised patch, no added Gβγ; unreliable: saturation not reached, sigmoidal fit of pooled patches"}},
  "data": [
    {"compound": "CCOC(=O)Nc1ccc(NCc2ccc(F)cc2)cc1N", "note": "[Retigabine]", "values": [
      {"measurement": "% increase of current at +20 mV", "setting": "Kv7.4 [1]", "result": "~ 40%"}
    ]},
    {"compound": "G-protein βγ subunits from bovine brain (from UniProt P62871 1-340; P63212 1-71) (complex)", "values": [
      {"measurement": "half maximal stimulation of Kv7.4 channel activity, inside-out excised patches, bath application of Gβγ (0.4–50 ng/ml)", "setting": "Kv7.4 channel", "result": 8.1, "unit": "ng/mL"},
      {"measurement": "increase of whole-cell Kv7.4 current amplitude within 5 min of rupture, intracellular perfusion of active Gβγ (250 ng/ml), control cells", "setting": "Kv7.4 channel", "result": 70, "unit": "%"}
    ]},
    {"compound": "NS15370", "values": [
      {"measurement": "% increase of current at +20 mV", "setting": "Kv7.4 [1]", "result": "~ 40%"}
    ]},
    {"compound": "PIP2", "values": [
      {"measurement": "half-maximal stimulation", "setting": "Kv7.4 [2]", "result": "~ 117 μM"}
    ]}
  ]
}
